Columns and labels:
Format in all cases: in vivo
[1] = system: wheat (Triticum aestivum); assay: Test A1 preemergence, wheat
Outline: (§1)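 Test compounds were formulated in a non-phytotoxic solvent mixture containing a surfactant. For preemergence, seeds sown in a loam soil–sand blend received a directed soil spray. For postemergence, potted plants in the same soil, 2 to 10 cm tall at the one- to two-leaf stage, were sprayed.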

[2] = system: goosegrass (Eleusine indica); assay: Test A1 postemergence, goosegrass; conditions: Postemergence
Outline: (§2)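 Pre: seeds in loam/sand blend, directed soil spray. Post: potted plants, same soil, 2–10 cm, 1–2 leaf stage. Chemicals in non-phytotoxic solvent + surfactant for both.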

[3] = system: Pigweed, Palmer (palmer amaranth, palmer pigweed, Amaranthus palmeri); assay: Test A1 postemergence, Pigweed, Palmer; conditions: Postemergence
Outline: as §1

[4] = system: blackgrass (Alopecurus myosuroides); assay: Test A1 postemergence, blackgrass; conditions: Postemergence, 0 to 100 scale (0 no effect, 100 complete control)
Outline: as §2

[5] = system: blackgrass (Alopecurus myosuroides); assay: Test A1 preemergence, blackgrass
Outline: as §1

rice (Oryza sativa) = assay: Test B1 flooded paddy test, rice; conditions: 250 g ai/ha, Flood, applied to paddy water, 2-leaf stage, visually evaluated after 10 to 14 days
From the text: A dash (-) response means no test result.

[6] = system: goosegrass (Eleusine indica); assay: Test A1 preemergence, goosegrass
Outline: as §1

[7] = system: horseweed (Erigeron canadensis); assay: Test A1 postemergence, horseweed; conditions: Postemergence
Outline: as §2

[8] = system: Ryegrass, Italian (Italian ryegrass, Lolium multiflorum); assay: Test A1 postemergence, Ryegrass, Italian; conditions: Postemergence
Outline: as §2

[9] = system: Foxtail, Giant (giant foxtail, Setaria faberi); assay: Test A1 postemergence, Foxtail, Giant; conditions: Postemergence
Outline: as §2

[10] = 31 g ai/ha, 0 to 100 scale (0 no effect, 100 complete control)
[11] = 125 g ai/ha, 0 to 100 scale, 0 no effect, 100 complete control
[12] = 31 g ai/ha, 0 to 100 scale (0 no effect, 100 complete control), 10 days

| SMILES | Plant response rating, Wheat [1, 10] | Plant response rating, Wheat [1, 11] | Plant response rating, Goosegrass [2, 12] | Plant response rating, Goosegrass ([2]; 125 g ai/ha, 0 to 100 scale) | Plant response rating, Pigweed, Palmer [3, 12] | Plant response rating, Pigweed, Palmer ([3]; 125 g ai/ha, 0 to 100 scale) | Plant response rating, Blackgrass ([4]; 31 g ai/ha, 10 days) | Plant response rating, Blackgrass ([4]; 125 g ai/ha) | Plant response rating, Blackgrass [5, 10] | Plant response rating, Blackgrass [5, 11] | Plant response rating, Rice (0 to 100 scale, 0 is no effect, 100 is complete control) (rice (Oryza sativa)) | Plant response rating, Goosegrass [6, 10] | Plant response rating, Goosegrass [6, 11] | Plant response rating, Horseweed [7, 12] | Plant response rating, Horseweed ([7]; 125 g ai/ha, 0 to 100 scale) | Plant response rating, Ryegrass, Italian [8, 12] | Plant response rating, Ryegrass, Italian ([8]; 125 g ai/ha, 0 to 100 scale) | Plant response rating, Foxtail, Giant [9, 12] | Plant response rating, Foxtail, Giant ([9]; 125 g ai/ha, 0 to 100 scale) |
| --- | --- | --- | --- | --- | --- | --- | --- | --- | --- | --- | --- | --- | --- | --- | --- | --- | --- | --- | --- |
| Cc1cc(C)c(N(COC(=O)C(C)(C)C)S(=O)(=O)C(F)(F)F)cc1C1=NOC2CCCCCC12 (single isomer, unassigned) [Compound 294] | 0 | 0 | 0 | 30 | 10 | 30 | 0 | 0 | 10 | 0 | 0 | 0 | 90 | 10 | 90 | 0 | 40 | 0 | 20 |
| Cc1c(NS(=O)(=O)C(F)(F)F)cc(C(=O)N2CCOCC2)c(C)c1C [Compound 289, 1,1,1-Trifluoro-N-[2,3,4-trimethyl-5-(4-morpholinylcarbonyl)phenyl]methanesulfonamide] | 30 | 80 | 40 | 70 | 10 | 60 | 0 | 10 | 0 | 60 | 10 | 80 | 90 | 80 | 90 | 30 | 60 | 40 | 90 |
| Cc1c(C2=NO[C@@H]3CCC[C@H]23)cc(N(COC(=O)C(C)(C)C)S(=O)(=O)C(F)(F)F)c(C)c1C [Compound 336, [[(Trifluoromethyl)sulfonyl][2,3,4-trimethyl-5-[(3aR,6aR)-3a,5,6,6a-tetrahydro-4H-cyclopent[d]isoxazol-3-yl]phenyl]amino]methyl 2,2-dimethylpropanoate] | 0 | 0 | 0 | 0 | 20 | 50 | 0 | 0 | 0 | 0 | 45 | 30 | 70 | 0 | 60 | 0 | 0 | 0 | 40 |
| Cc1cc(C2CC2)c(C2=NOC3CCCC23)cc1NS(=O)(=O)C(F)(F)F (centres unmarked) [Compound 307] | 10 | 80 | 30 | 80 | 0 | 40 | 0 | 10 | 0 | 50 | 0 | 80 | 100 | 30 | 80 | 20 | 80 | 20 | 40 |
| Cc1cc(C)c(N(C(=O)OC(C)C)S(=O)(=O)C(F)(F)F)cc1C1=NOC2CCCC12 (centres unmarked) [Compound 295] | 0 | 30 | 20 | 70 | 0 | 30 | 0 | 0 | 0 | 0 | 0 | 80 | 90 | 10 | 50 | 0 | 30 | 0 | 10 |
